Laboratory results from US20180030483A1, “PROCESS FOR PRODUCTION OF BIO-ALCOHOL” (DANISCO US INC., priority 2015, published 2018).
Read-outs that look alike come from different tables or passages of the source.

Legend:
Saccharomyces cerevisiae [1] = test: Batch yeast fermentation in YEGM medium with added organic acid salt; type: cell-based; settings: increasing concentration 0 to 1000 ppm; for increase in ethanol production: 32° C., until glucose less than 0.1% w/v; for yeast growth: biomass by OD660
Experimental: Yeast Extract Glucose media (YEGM): YEGM was prepared by dissolving 0.75 g Yeast Extract and 10 g dextrose dissolved in 100 ml tap water with pH in range […]. The media was then sterilized at 121° C. for 20 min.
The yeast biomass was measured using UV-Vis spectrophotometers (Shimadzu UV-1800) by diluting with YEGM to an OD660 in range of 0.2 to 0.8 with Milli-Q water.
Thereafter, the samples were analysed for alcohol and glycerol profile by HPLC and yeast biomass by UV Spectrophotometer.

Saccharomyces cerevisiae [2] = settings: molasses media, 0 to 1000 ppm, 3 g active dry yeast, 32° C.
Experimental: Molasses Medium: The media was prepared by diluting 333 g molasses with water to final weight of 1000 g (w/w). To this 400 mg of urea was added as nitrogen source.
Saccharomyces cerevisiae was used in the form of active dry yeast at a concentration of 3% w/v or was pre-cultured by adding 6 g of active dry yeast into 100 ml YEGM in 250 ml Erlenmeyer's flask. The cultures were incubated at 32° C.±2° C. with mixing at 100 to 200 rpm to a final OD660 of 100±10. This culture was subsequently used as an inoculum for further fermentation studies at a concentration of 6% v/v.
The composition of the reaction products was measured by high pressure liquid chromatographic method (Agilent Isocratic system 1200, USA with RI detector) by injecting 20 μL of appropriately diluted samples onto a Aminex Column HPX-87H (catalogue number 1250140, Bio-Rad) maintained at 60° C. using 0.01N sulphuric acid as a mobile phase at a flow rate of 0.7 mL/min. The detection was carried out using Refractive index detector (RID).
Fermentation was carried out at 32° C.±2° C. in incubator shaker at 100-200 rpm. The fermentation was carried out until glucose value observed was less than 0.1% w/v. Thereafter, the samples were analysed for alcohol, organic acids, and glycerol profile by HPLC.
Batch fermentation was initiated by addition of sodium benzoate at a concentration ranging from 0 to 1000 ppm followed by 3 g of active dry yeast into 100 ml molasses media in 250 mL Erlenmeyer flasks. Fermentation was carried out in incubator shaker at 32° C.±2° C. at 100 to 200 rpm. Thereafter, the samples were analysed for alcohol, organic acids, and glycerol profile by HPLC.
Fermentation was carried out at 32° C.±2° C. in incubator shaker at 100 to 200 rpm. The fermentation was carried out until glucose value observed was less than 0.1% w/v. Thereafter, the samples were analysed for alcohol, organic acids, and glycerol profile by HPLC.

In the case of `C/C=C/C=C/C(=O)[O-].[K+]` [potassium sorbate], the glycerol yield (Saccharomyces cerevisiae [1]) is reported as “reduced”, the “increase in ethanol production” value (Saccharomyces cerevisiae [1]) is reported as ≥ 6% and the yeast growth (Saccharomyces cerevisiae [1]) is reported as “reduced”. For the same molecule, the acetic acid yield (Saccharomyces cerevisiae [2]) was “reduced”, the ethanol production (Saccharomyces cerevisiae [2]) was “increased” and the glycerol yield (Saccharomyces cerevisiae [2]) was “reduced”.

`O=C([O-])c1ccccc1.[Na+]` [sodium benzoate] was tested, and the glycerol yield (Saccharomyces cerevisiae [1]) was “reduced”, the “increase in ethanol production” value (Saccharomyces cerevisiae [1]) was ≥ 6% and the yeast growth (Saccharomyces cerevisiae [1]) was “reduced”. The ethanol production (Saccharomyces cerevisiae [2]) was “increased” and the glycerol yield (Saccharomyces cerevisiae [2]) was “reduced”.
